The source of these data is a melting point compilation (Tetko et al.).

In general, melting point refers to the temperature of the solid-liquid transition. `COC(=O)c1ccc(CBr)cc1`: the melting point came out at 56 °C. `CC1CCC(C(C)C)C(OC(=O)C(C)O)C1` (single isomer, unassigned; (-)) gave a melting point of 40 °C. `CC1(C)OC(CO)C(CO)O1` (single isomer, unassigned; (+)) had a melting point of 47 to 51 °C. The result for `Cc1cc(C)c(CCl)cc1CCl` reads 97 to 99 °C. Molecule `Cc1c(C)c(C)c(N)c(C)c1C` yielded a melting point of 152 °C. The result for `SCCCCS` reads -53.9 °C; that for `NC(=O)c1cnn(CCO)c1N`, 239 °C; that for `CCCCCCCC(O)CC` (configuration not stated), -5 °C. `CC12CCC3C(CCC4CCCCC43C)C1CCC2O` (configuration not stated): the melting point is 166 °C. On to `COc1cccc(C=Nc2n[nH]c(N=Cc3cccc(OC)c3O)c2Cc2ccc(Cl)cc2)c1O`, for which the melting point fell in the range of 261 to 263 °C. The result for `O=C1OC(c2ccccc2)=NC1=Cc1ccc(Br)cc1` reads 192 to 193 °C. The result for `COc1nc(Cl)nc(OC)n1` reads 77 °C; that for `N#C/C(=C\c1ccc(F)cc1)c1nc2ccccc2c(=O)[nH]1`, 305 to 306 °C; that for `Cn1cnc(S(N)(=O)=O)c1`, 222 to 224 °C. Turning to `CCCCc1ccc(/C=N/c2ccc(C(C)=O)cc2)cc1`, the melting point is 83 to 93 °C. In turn, `CC1(C)OC2CC(=O)OCC23C1CC(=O)C1(C)C3CCC2(C)C(c3ccoc3)OC(=O)C3OC321` (configuration not stated) returned a melting point of 298 °C. The result for `N#CCC(=O)c1ccco1` reads 81 to 83 °C. The result for `Cc1ccc(Cl)c(Nc2ccccc2C(=O)O)c1Cl` reads 257 °C; that for `Brc1ccc(Oc2ccccc2Br)c(Br)c1`, < 20 °C. The result for `C[C@H](CCC(=O)O)[C@H]1CC[C@H]2[C@@H]3CC[C@H]4CC(=O)CC[C@]4(C)[C@H]3CC[C@]12C` reads 189 °C. For `CC(=O)OC1CCC2(C)C(=CC(=O)C3C4CCC(=O)C4(C)CCC32)C1` (configuration not stated), the melting point worked out at 182 °C.

`CCOCCC(OCC)OCC` came in with a melting point of 53 °C. In turn, `O=C(O)c1ccc(OC(F)(F)C(F)F)cc1` registered a melting point of 176 to 177 °C. The result for `CN(C)CCN(C)CCN(C)C` reads 18 °C. The result for `CC12CCC(O)CC1CCC1C2CCC2(C)C(OC(=O)c3ccccc3)CCC12` (configuration not stated) reads 194 °C. The result for `CC(C)NCC(O)COc1ccc(COCCOC(C)C)cc1` (configuration not stated) reads 100 °C; that for `CCCCCCCCCCCCCCCC(=O)OCC(COP(=O)([O-])OCC[N+](C)(C)C)OC(=O)CCCCCCCCCCCCCCC` (configuration not stated), 229 to 230 °C.

For the molecule `N#CCN=C(c1ccccc1)c1ccccc1`, the melting point fell in the range of 83 to 86 °C. As to `CC1(C)O[C@@H](CP(c2ccccc2)c2ccccc2)[C@@H](CP(c2ccccc2)c2ccccc2)O1`, the melting point was in the range of 86 to 88 °C. The result for `CC1(C)CC(=O)C2=C(C1)Nc1ccc3ccccc3c1C2c1ccc(Cl)cc1Cl` (configuration not stated) reads 348 °C; that for `O=[N+]([O-])c1ccc(ON=Cc2cc(Br)c(O)c(Br)c2)c([N+](=O)[O-])c1`, 196 °C; that for `NC(=O)NC=O`, 170 to 173 °C. The molecule `CCC1CC(N)(C(=O)O)CC(C)(C)N1O` (configuration not stated) showed a melting point of 230 °C.

The molecule `O=C(O)c1cc(F)c(F)cc1[N+](=O)[O-]` registered a melting point of 165 °C. As for `Nc1ccc(N=Nc2ccc(N)cc2)cc1`, the melting point is 250 °C.

Molecule `CCC(=O)Oc1cccc2ccccc12` had a melting point of 34 to 35 °C. The result for `O=C(O)[C@@H]1CCCC[C@H]1C(=O)c1ccccc1` (relative stereo) reads 150 to 153 °C; that for `Cc1cc(Cl)c(Cl)cc1Cl`, 82.4 °C; that for `COc1ccc(N/C=C2\C(=O)C3(C)CCC2C3(C)C)cc1` (configuration not stated), 171 °C. The result for `CC1=C(C(=O)OC(C)C)C(c2ccco2)NC(=S)N1` (configuration not stated) reads 191 °C.

In the case of `NC(COc1ccccc1)=NO`, the melting point was in the range of 93 to 94 °C. The result for `OCc1cccc(OCCN2CCOCC2)c1` reads 55 to 60 °C.

`Clc1cc(Cl)c2oc3c(Cl)c(Cl)ccc3c2c1` returned a melting point of 164 °C. For `Clc1c(Cl)c(Cl)c2c(oc3ccccc32)c1Cl`, the melting point was determined as 169 °C. Consider `Clc1cc(Br)cc(Br)c1`, for which the melting point amounted to 93 °C. `O=C1c2ccccc2C(=O)c2c(Nc3cccc4c3C(=O)c3ccccc3C4=O)cccc21` returned a melting point of 300 °C. The result for `O=C1OC(CO)C(O)C1O` (configuration not stated) reads 83 to 85 °C; that for `CC(=O)CCc1cc2c(c([N+](=O)[O-])c1)CCC(C)N2C(=O)c1ccc([N+](=O)[O-])cc1` (configuration not stated), 115 °C; that for `COc1cc(N=C=O)cc(OC)c1OC`, 40 °C. The result for `N#CCC(=O)N1CCOCC1` reads 87 to 89 °C; that for `COC1=CC=C2C3Cc4ccc(OC)c5c4C2(CCN3C)C1O5` (configuration not stated), 193 °C. On to `N#Cc1c(NC(=O)c2ccc(Cl)cc2Cl)sc2c1CCCC2`, for which the melting point was in the range of 201 to 202 °C. The result for `CN1CCCN(CC#N)CCN(CC#N)CCCN(CC#N)CC1` reads 88 °C; that for `BrCc1ccc2nsnc2c1`, 91 °C.

As for `Cc1ccccc1NC(=O)c1cnc(C(C)(C)C)cn1`, the melting point is 81 °C. The result for `CCOC(=O)c1c(NC(=O)CN(CC)CC)sc2c1CCCC2` reads 74 to 75 °C; that for `O=C1CCc2ccc(O)cc2N1`, 232 °C. The result for `Cc1ncc(C(=O)O)c(-c2ccccc2)n1` reads 210 to 211 °C; that for `O=C(O)CCCCCCCCCCCCC(=O)O`, 127 °C; that for `Clc1ccccc1C=C1c2ccccc2-c2ccccc21`, 69.5 °C.

For the molecule `CC(C)Nc1nc(N)nc(Cl)n1`, the melting point was 133 °C. The result for `O=C(O)/C=C/c1c(F)cccc1F` reads 124 to 125 °C. The result for `Cn1nc(C(=O)Cl)cc1-c1cccs1` reads 48 to 49 °C; that for `Fc1cc(Br)ccc1I`, 48 °C.

`CC(C)C=CC(=O)O`: the melting point came out at 35 °C. The result for `CC(C)(C)C(=O)Cl` reads -56 °C; that for `Brc1ccccc1Oc1ccccc1`, < 20 °C. The result for `CCOc1c(Br)cc(Br)cc1C=O` reads 87 to 87.5 °C; that for `O=C(O)C1Cc2ccccc21` (configuration not stated), 74 °C; that for `CCOC(=O)C(=O)Nc1cc(C(F)(F)F)cc(C(F)(F)F)c1`, 90 to 92 °C. The result for `COC(=O)c1ccc(C(C)=O)cc1` reads 93 to 95 °C; that for `CCC(=O)N1C(=O)OC[C@@H]1Cc1ccccc1`, 42 to 44 °C. Regarding `CN1C(=O)C=CC1=O`, the melting point came out at 95 °C. The result for `COC(=O)C1=C(C(=O)OC)C2(COC(=O)C(C)NC(C)=O)c3ccccc3C1c1ccccc12` (configuration not stated) reads 180 °C; that for `CC(C)=CCC1C(=O)N(c2ccccc2)N(c2ccccc2)C1=O`, 156 °C. `CCCCCCCCc1ccc(O)cc1`: the melting point was 45 °C. The result for `COc1ccc(-n2ncc(C(=O)Cl)c2C)cc1` reads 86 °C.
